Assay results from PubChem BioAssay (NCI).
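Values below derive from 48-hour exposures of cells grown in 96-well plates, with endpoints linearly interpolated between the two concentrations bracketing the appropriate inhibition level. At the GI50, growth is halved. TGI marks complete inhibition of growth.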

How the values were obtained:
Assay in all cases: NCI-60 cell line screen, 48 h
[1] = test system: UACC-257 melanoma
[2] = test system: SK-MEL-5 melanoma
[3] = test system: SNB-19 CNS
[4] = test system: HCT-116 colon
[5] = test system: ACHN renal
[6] = test system: SF-539 CNS
[7] = test system: SK-MEL-2 melanoma
[8] = test system: RPMI-8226 leukemia
[9] = test system: NCI-H522 lung
[10] = test system: MCF7 breast
[11] = test system: BT-549 breast
[12] = test system: SK-MEL-28 melanoma
[13] = test system: TK-10 renal
[14] = test system: PC-3 prostate
[15] = test system: HOP-92 NSCLC
[16] = test system: OVCAR-4 ovarian
[17] = test system: NCI-H226 lung
[18] = test system: UACC-62 melanoma
[19] = test system: OVCAR-3 ovarian
[20] = test system: K-562 leukemia
[21] = test system: A549 NSCLC
[22] = test system: UO-31 renal
[23] = test system: SK-OV-3 ovarian
[24] = test system: SF-295 CNS
[25] = test system: HT29 colon
[26] = test system: CCRF-CEM leukemia
[27] = test system: NCI-H23 lung
[28] = test system: KM12 colon
[29] = test system: 786-0 renal
[30] = test system: SNB-75 CNS
[31] = test system: SW-620 colon
[32] = test system: COLO 205 colon
[33] = test system: MOLT-4 leukemia
[34] = test system: MDA-MB-435
[35] = test system: HCT-15 colon
[36] = test system: LOX IMVI melanoma
[37] = test system: HS 578T breast
[38] = test system: T-47D breast
[39] = test system: IGROV1 ovarian
[40] = test system: HOP-62 NSCLC
[41] = test system: EKVX NSCLC
[42] = test system: CAKI-1 renal
[43] = test system: M14 melanoma
[44] = test system: MALME-3M melanoma
[45] = test system: NCI-H460 lung
[46] = test system: U251 CNS
[47] = test system: OVCAR-5 ovarian
[48] = test system: OVCAR-8 ovarian
[49] = test system: SF-268 CNS
[50] = test system: NCI/ADR-RES ovarian
[51] = test system: HCC-2998 colon
[52] = test system: DU-145 prostate
[53] = test system: RXF 393 renal
[54] = test system: SN12C renal
[55] = test system: A498 renal
[56] = test system: HL-60(TB) leukemia
[57] = test system: MDA-MB-231 breast

N#Cc1c(N2CCCC2)[nH]c(=O)c(C(c2c(Cl)cccc2Cl)c2c(O)c(C#N)c(N3CCCC3)[nH]c2=O)c1O gave a GI50 [1] of 12.4 µM, a TGI [1] of 26.7 µM and a GI50 [2] of 0.409 µM. It also gave a TGI [2] of 13.5 µM, a GI50 [3] of 4.24 µM and a TGI [3] of 18.2 µM. It also gave a GI50 [4] of 14.7 µM, a TGI [4] of 40 µM and a GI50 [5] of 16.8 µM. The TGI [5] was 34.1 µM, the GI50 [6] was 0.369 µM and the TGI [6] was 10.9 µM. The GI50 [7] was 16.6 µM, the TGI [7] was 45.4 µM and the GI50 [8] was 2.54 µM. For the same molecule, the TGI [8] was 18.4 µM, the GI50 [9] was 9.74 µM and the TGI [9] was 35.1 µM. For the same molecule, the GI50 [10] was 14.2 µM, the TGI [10] was 49.8 µM and the GI50 [11] was 2.3 µM. The TGI [11] was 6.25 µM, the GI50 [12] was 5.34 µM and the TGI [12] was 40.6 µM. The GI50 [13] was 12.4 µM, the TGI [13] was 29.6 µM and the GI50 [14] was 14.5 µM. For the same molecule, the TGI [14] was 28.3 µM, the GI50 [15] was 10.2 µM and the TGI [15] was 28.5 µM. The GI50 [16] was 17.5 µM, the TGI [16] was 33.7 µM and the GI50 [17] was 10.9 µM. The TGI [17] was 24.4 µM, the GI50 [18] was 4.71 µM and the TGI [18] was 20.5 µM. The GI50 [19] was 3.33 µM, the TGI [19] was 14.3 µM and the GI50 [20] was 27.4 µM. The TGI [20] was greater than 100 µM, the GI50 [21] was 18.8 µM and the TGI [21] was 36 µM. It also gave a GI50 [22] of 16.1 µM, a TGI [22] of 35.9 µM and a GI50 [23] of 0.0847 µM. The TGI [23] was 21 µM, the GI50 [24] was 18.7 µM and the TGI [24] was 37.4 µM. The GI50 [25] was 15.8 µM, the TGI [25] was 35.5 µM and the GI50 [26] was 1.91 µM. It also gave a TGI [26] of 5.06 µM, a GI50 [27] of 11.6 µM and a TGI [27] of 31 µM. It also gave a GI50 [28] of 22.6 µM, a TGI [28] of 54 µM and a GI50 [29] of 4.34 µM. The TGI [29] was greater than 100 µM, the GI50 [30] was 12.5 µM and the TGI [30] was 33 µM. For the same molecule, the GI50 [31] was 3.91 µM, the TGI [31] was 18.4 µM and the GI50 [32] was 5.11 µM. The TGI [32] was 17.4 µM, the GI50 [33] was greater than 100 µM and the TGI [33] was greater than 100 µM. For the same molecule, the GI50 [34] was 9.6 µM, the TGI [34] was 25.2 µM and the GI50 [35] was 7.7 µM. The TGI [35] was 26.9 µM, the GI50 [36] was 11.6 µM and the TGI [36] was 37.2 µM. It also gave a GI50 [37] of 2.75 µM, a TGI [37] of 19.1 µM and a GI50 [38] of 3.13 µM. For the same molecule, the TGI [38] was 13.4 µM, the GI50 [39] was 19 µM and the TGI [39] was 56.5 µM. The GI50 [40] was 21.2 µM, the TGI [40] was 49.6 µM and the GI50 [41] was 0.0367 µM. The TGI [41] was 17.1 µM, the GI50 [42] was 10.7 µM and the TGI [42] was 24 µM. It also gave a GI50 [43] of 11.4 µM, a TGI [43] of 24 µM and a GI50 [44] of 19.3 µM. It also gave a TGI [44] of 36.4 µM, a GI50 [45] of 18.2 µM and a TGI [45] of 38.4 µM. The GI50 [46] was 13.4 µM, the TGI [46] was 95.1 µM and the GI50 [47] was 19.2 µM. It also gave a TGI [47] of 38.3 µM, a GI50 [48] of 15.8 µM and a TGI [48] of 33.1 µM. The GI50 [49] was 11.9 µM, the TGI [49] was 29.3 µM and the GI50 [50] was 15.4 µM. It also gave a TGI [50] of 33.8 µM, a GI50 [51] of 12.1 µM and a TGI [51] of 25.7 µM. The GI50 [52] was 5.57 µM, the TGI [52] was 18.4 µM and the GI50 [53] was 2.69 µM. For the same molecule, the TGI [53] was 15.4 µM, the GI50 [54] was 13.6 µM and the TGI [54] was 33.9 µM.
Nc1nc2c(c3ncncc13)C(c1cccc(C(F)(F)F)c1)Cc1ncncc1-2 (stereo not given) gave a GI50 [1] of 9.56 µM, a TGI [1] of 62.1 µM and a GI50 [2] of 4.88 µM. It also gave a TGI [2] of 17.7 µM, a GI50 [3] of 4.88 µM and a TGI [3] of 33.2 µM. For the same molecule, the GI50 [4] was 4.85 µM, the TGI [4] was 37 µM and the GI50 [5] was 7.06 µM. It also gave a TGI [5] of 41.6 µM, a GI50 [6] of 1.98 µM and a TGI [6] of 5.97 µM. The GI50 [7] was 5.36 µM, the TGI [7] was 29.7 µM and the GI50 [8] was 5.33 µM. For the same molecule, the TGI [8] was 43.8 µM, the GI50 [9] was 4.66 µM and the TGI [9] was 26.1 µM. The GI50 [10] was 2.96 µM, the TGI [10] was greater than 100 µM and the GI50 [11] was 4.08 µM. For the same molecule, the TGI [11] was 21.5 µM, the GI50 [55] was 3.28 µM and the TGI [55] was 8.75 µM. For the same molecule, the GI50 [12] was 11.4 µM, the TGI [12] was 26.9 µM and the GI50 [13] was 9.05 µM. The TGI [13] was 79.4 µM, the GI50 [14] was 4.71 µM and the TGI [14] was greater than 100 µM. For the same molecule, the GI50 [15] was 6.92 µM, the TGI [15] was 57.9 µM and the GI50 [16] was 10.8 µM. For the same molecule, the TGI [16] was greater than 100 µM, the GI50 [17] was 9.61 µM and the TGI [17] was 50.1 µM. It also gave a GI50 [18] of 3.86 µM, a TGI [18] of 17.6 µM and a GI50 [19] of 3.03 µM. It also gave a TGI [19] of 11.4 µM, a GI50 [20] of 3.74 µM and a TGI [20] of 22.8 µM. For the same molecule, the GI50 [21] was 5.45 µM, the TGI [21] was greater than 100 µM and the GI50 [22] was 7.22 µM. The TGI [22] was 85 µM, the GI50 [23] was 5.07 µM and the TGI [23] was greater than 100 µM. The GI50 [24] was 2.99 µM, the TGI [24] was 10.7 µM and the GI50 [25] was 4.2 µM. For the same molecule, the TGI [25] was 15.9 µM, the GI50 [26] was 4.28 µM and the TGI [26] was 23.3 µM. It also gave a GI50 [27] of 5.17 µM, a TGI [27] greater than 100 µM and a GI50 [28] of 4.43 µM. It also gave a TGI [28] of 35.5 µM, a GI50 [29] of 4.43 µM and a TGI [29] of 27.4 µM. The GI50 [30] was 3.11 µM, the TGI [30] was 43.7 µM and the GI50 [31] was 4.51 µM. It also gave a TGI [31] greater than 100 µM, a GI50 [32] of 3.26 µM and a TGI [32] of 13.8 µM. For the same molecule, the GI50 [33] was 4.78 µM, the TGI [33] was 34.9 µM and the GI50 [56] was 3.44 µM. The TGI [56] was 14.1 µM, the GI50 [35] was 3.57 µM and the TGI [35] was greater than 100 µM. For the same molecule, the GI50 [36] was 5.36 µM, the TGI [36] was 21.1 µM and the GI50 [37] was 4.71 µM. It also gave a TGI [37] of 45.9 µM, a GI50 [38] of 4.15 µM and a TGI [38] of 82.9 µM. The GI50 [39] was 8.06 µM, the TGI [39] was 74.9 µM and the GI50 [40] was 7.41 µM. For the same molecule, the TGI [40] was 47.2 µM, the GI50 [41] was 6.18 µM and the TGI [41] was greater than 100 µM. The GI50 [42] was 4.29 µM, the TGI [42] was greater than 100 µM and the GI50 [43] was 2.97 µM. For the same molecule, the TGI [43] was 10 µM, the GI50 [44] was 10.2 µM and the TGI [44] was 44.7 µM. The GI50 [45] was 3.96 µM, the TGI [45] was greater than 100 µM and the GI50 [46] was 3.69 µM. The TGI [46] was 13.6 µM, the GI50 [47] was 11.3 µM and the TGI [47] was 31.4 µM. For the same molecule, the GI50 [48] was 8.08 µM, the TGI [48] was greater than 100 µM and the GI50 [49] was 5.94 µM. The TGI [49] was 37.7 µM, the GI50 [50] was 3.48 µM and the TGI [50] was greater than 100 µM. It also gave a GI50 [51] of 11.2 µM, a TGI [51] of 48.7 µM and a GI50 [57] of 11.1 µM. It also gave a TGI [57] of 31.3 µM, a GI50 [52] of 3.78 µM and a TGI [52] greater than 100 µM. The GI50 [53] was 2.96 µM, the TGI [53] was 8.81 µM and the GI50 [54] was 7.66 µM. It also gave a TGI [54] of 49.2 µM.
